# Key:
# ERK1 = target: T1, ERK1 (Homo sapiens, UniProt P27361); test: ERK1 HTRF (biochemical) assay
# T1 construct: purchased Jubilant Biosys
# Method: ERK1 and ERK2 HTRF (Biochemical) Assays
# These assays employed a homogeneous time resolved fluorescence (HTRF) technique. […] The plate was incubated at room temperature for 60 min with shaking. […] The IC50 values (half maximal inhibitory concentration values) were subsequently determined using a sigmoidal dose-response curve (variable slope) in GraphPad Prism® 5 software.
# ERK2 = target: T2, ERK2 (Homo sapiens, UniProt P28482); test: ERK2 HTRF (biochemical) assay
# T2 construct: purchased Jubilant Biosys
# How it was run: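 Compounds were tested as half-log dilutions from 0.0005 to 10 uM in Tris pH 7.5/MgCl2 buffer, with a substrate mix of 1 uM biotin-MBP peptide and 24 uM ATP and an enzyme mix of 25 nM ERK2. Reaction ran 60 min at room temperature. Phospho-MBP was detected by HTRF (Eu-anti-phospho-MBP/SA-APC, 665/620 nm), and IC50 was fitted with a variable-slope sigmoidal curve.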
# T2 sequence (P28482 whole entry): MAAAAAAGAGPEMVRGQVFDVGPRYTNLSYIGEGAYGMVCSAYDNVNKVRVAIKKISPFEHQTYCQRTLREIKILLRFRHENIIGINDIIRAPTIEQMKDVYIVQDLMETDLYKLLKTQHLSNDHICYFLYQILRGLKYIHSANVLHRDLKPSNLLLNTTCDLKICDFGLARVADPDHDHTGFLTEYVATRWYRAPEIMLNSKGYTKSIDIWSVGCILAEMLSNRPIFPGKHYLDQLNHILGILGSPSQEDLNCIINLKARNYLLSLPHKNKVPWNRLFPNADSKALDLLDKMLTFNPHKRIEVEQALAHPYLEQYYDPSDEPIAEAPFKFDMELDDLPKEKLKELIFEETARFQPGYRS
# T1 sequence (P27361 whole entry): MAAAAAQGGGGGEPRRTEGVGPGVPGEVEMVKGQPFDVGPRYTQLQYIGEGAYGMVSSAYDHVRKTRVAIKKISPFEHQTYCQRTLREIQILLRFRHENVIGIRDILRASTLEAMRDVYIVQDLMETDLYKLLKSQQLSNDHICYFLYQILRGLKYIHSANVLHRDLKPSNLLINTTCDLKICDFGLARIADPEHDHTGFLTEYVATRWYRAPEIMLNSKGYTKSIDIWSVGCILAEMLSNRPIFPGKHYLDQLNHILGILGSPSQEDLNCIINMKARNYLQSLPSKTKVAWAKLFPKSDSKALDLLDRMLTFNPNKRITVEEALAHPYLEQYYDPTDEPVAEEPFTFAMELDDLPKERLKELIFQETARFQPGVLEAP
SMILES,IC50 (ERK1; HTRF) [nM],IC50 (ERK2; HTRF) [nM],IC50 (ERK1; HTRF biochemical assay) [nM],IC50 (ERK2; HTRF biochemical assay) [nM]
"Cc1cnc(Nc2ccc(F)cc2)nc1-n1cc(C(=O)NC(CO)c2ccccc2)nc1C (centres unmarked) [Compound 153, 1-(2-((4-Fluorophenyl)amino)-5-methylpyrimidin-4-yl)-N-(2-hydroxy-1-phenylethyl)-2-methyl-1H-imidazole-4-carboxamide]",100 to 500,100 to 500,,
"Cc1cnc(NC2CC(F)(F)C2)nc1-n1cnc(C(=O)NC(CN)c2cc(F)cc(Cl)c2)c1 (centres unmarked) [Example 278, N-(2-amino-1-(3-chloro-5-fluoro-phenyl)ethyl)-1-(2-((3,3-difluoro-cyclobutyl)amino)-5-methylpyrimidin-4-yl)-1H-imidazole-4-carboxamide]",< 50,≤ 50,,
"Cc1cnc(Nc2ccc3occc3c2)nc1-n1cnc(C(=O)NC(CO)c2cccc(Cl)c2)c1 (centres unmarked) [Compound 132, 1-(2-(benzofuran-5-ylamino)-5-methylpyrimidin-4-yl)-N-(1-(3-chlorophenyl)-2-hydroxyethyl)-1H-imidazole-4-carboxamide]",< 50,≤ 50,,
"Cc1cnc(Nc2ccc(F)cc2)cc1-n1ccc(C(=O)NC(CN)c2ccccc2)c1 (centres unmarked) [Compound 98, N-(2-amino-1-phenylethyl)-1-(2-((4-fluorophenyl)-amino)-5-methyl-pyridin-4-yl)-1H-pyrrole-3-carboxamide]",< 50,≤ 50,,
"NCC(NC(=O)c1cn(-c2ccnc(Nc3ccc(F)cc3)c2)cn1)c1ccccc1 (centres unmarked) [Compound 221, N-(2-amino-1-phenylethyl)-1-(2-((4-fluorophenyl)-amino)pyridin-4-yl)-1H-imidazole-4-carboxamide]",< 50,≤ 50,,
"Cc1cnc(Nc2ccc(F)cc2)nc1-n1cnc(C(=O)N[C@H](CN)c2cccc(Cl)c2)c1 [Compound 248, (S)-N-(2-amino-1-(3-chlorophenyl)-ethyl)-1-(2-((4-fluorophenyl)amino)-5-methyl-pyrimidin-4-yl)-1H-imidazole-4-carboxamide]",< 50,≤ 50,,
"Cc1cnc(NC2CCOCC2)nc1-n1cnc(C(=O)NC(CN)c2cccc(Cl)c2)c1 (racemic) [Compound 225, N-(2-Amino-1-(3-chlorophenyl)ethyl)-1-(5-methyl-2-((tetrahydro-2H-pyran-4-yl)amino)pyrimidin-4-yl)-1H-imidazole-4-carboxamide]",< 50,≤ 50,,
"Cc1cnc(NC2CCOCC2)nc1-n1cnc(C(=O)NCc2cccc(Cl)c2CN)c1 [Example 285, N-(2-(aminomethyl)-3-chlorobenzyl)-1-(5-methyl-2-((tetrahydro-2H-pyran-4-yl)amino)-pyrimidin-4-yl)-1H-imidazole-4-carboxamide]",< 50,≤ 50,,
"C#Cc1cccc(Nc2nccc(-n3cc(NC(=O)N[C@H](CO)c4cccc(Cl)c4)cn3)n2)c1 [Compound 38, (S)-1-(1-(3-chlorophenyl)-2-hydroxyethyl)-3-(1-(2-((3-ethynyl-phenyl)amino)pyrimidin-4-yl)-1H-pyrazol-4-yl)urea]",< 50,≤ 50,,
"O=C(N[C@H](CO)c1cccc(Cl)c1)c1cn(-c2ccnc(NC3CCOC3)c2)cn1 (stereo partly drawn) [Compound 170, N-((S)-1-(3-chlorophenyl)-2-hydroxyethyl)-1-(2-((tetrahydrofuran-3-yl)amino)pyridin-4-yl)-1H-imidazole-4-carboxamide]",< 50,≤ 50,,
"Cc1cnc(Nc2ccc(F)cc2)nc1-n1cnc(C(=O)NC(CN)c2cccc(Cl)c2)c1 (centres unmarked) [Compound 177, N-(2-amino-1-(3-chlorophenyl)ethyl)-1-(2-((4-fluoro-phenyl)amino)-5-methylpyrimidin-4-yl)-1H-imidazole-4-carboxamide]",< 50,≤ 50,,
"Cc1cnc(N[C@H]2CCOC2)nc1-n1cnc(C(=O)NCc2cccc(Cl)c2C)c1 [Example 331, (S)-N-(3-chloro-2-methylbenzyl)-1-(5-methyl-2-((tetrahydrofuran-3-yl)amino)pyrimidin-4-yl)-1H-imidazole-4-carboxamide]",,,< 50,≤ 50
"O=C(NC(CO)c1cccc(Cl)c1)c1ccn(-c2ccnc(Nc3ccc(F)cc3Cl)n2)c1 (centres unmarked) [Compound 111, 1-(2-((2-chloro-4-fluorophenyl)amino)pyrimidin-4-yl)-N-(1-(3-chlorophenyl)-2-hydroxyethyl)-1H-pyrrole-3-carboxamide]",50 to 100,≤ 50,,

# Further lines, results first:
IC50 (ERK1; HTRF) [nM],IC50 (ERK2; HTRF) [nM],IC50 (ERK1; HTRF biochemical assay) [nM],IC50 (ERK2; HTRF biochemical assay) [nM],SMILES
< 50,≤ 50,,,"Cc1cnc(Nc2ccc(F)cc2)nc1-n1ccc(C(=O)NC(CO)c2ccccc2)c1 (centres unmarked) [Compound 114, 1-(2-((4-fluoro-phenyl)amino)-5-methylpyrimidin-4-yl)-N-(2-hydroxy-1-phenylethyl)-1H-pyrrole-3-carboxamide]"
< 50,≤ 50,,,"Cc1cnc(NC2CCOC2)nc1-n1ccc(C(=O)N[C@H](CO)c2ccc(F)c(Cl)c2)c1 (stereo partly drawn) [Compound 157, N-((S)-1-(3-chloro-4-fluorophenyl)-2-hydroxyethyl)-1-(5-methyl-2-((tetrahydrofuran-3-yl)amino)pyrimidin-4-yl)-1H-pyrrole-3-carboxamide]"
< 50,≤ 50,,,"Cc1cnc(NC2CCOC2)nc1-n1ccc(C(=O)N[C@H](CO)c2cccc(Cl)c2)c1 (stereo partly drawn) [Compound 151, N-((S)-1-(3-chlorophenyl)-2-hydroxyethyl)-1-(5-methyl-2-((tetrahydrofuran-3-yl)amino)pyrimidin-4-yl)-1H-pyrrole-3-carboxamide]"
< 50,≤ 50,,,"Cc1cnc(NC2COC2)nc1-n1cnc(C(=O)N[C@H](CN)c2cccc(Cl)c2)c1 [Example 268, (S)-N-(2-amino-1-(3-chlorophenyl)-ethyl)-1-(5-methyl-2-(oxetan-3-ylamino)pyrimidin-4-yl)-1H-imidazole-4-carboxamide]"
50 to 100,≤ 50,,,"Cc1cnc(NC(CO)CO)nc1-n1ccc(C(=O)NC(CO)c2ccccc2)c1 (centres unmarked) [Compound 147, 1-(2-((1,3-dihydroxypropan-2-yl)amino)-5-methylpyrimidin-4-yl)-N-(2-hydroxy-1-phenylethyl)-1H-pyrrole-3-carboxamide]"
< 50,≤ 50,,,"Cc1cnc(NC2CCOC2)nc1-n1ccc(C(=O)NC(CO)c2ccccc2)c1 (centres unmarked) [Compound 128, N-(2-hydroxy-1-phenylethyl)-1-(5-methyl-2-((tetrahydrofuran-3-yl)amino)pyrimidin-4-yl)-1H-pyrrole-3-carboxamide]"
< 50,≤ 50,,,"Cc1cnc(N[C@H]2CCOC2)nc1-n1ccc(C(=O)N[C@H](CO)c2cccc(Cl)c2)c1 [Compound 161, N-((S)-1-(3-chlorophenyl)-2-hydroxyethyl)-1-(5-methyl-2-(((S)-tetrahydrofuran-3-yl)amino)pyrimidin-4-yl)-1H-pyrrole-3-carboxamide]"
50 to 100,50 to 100,,,"Cc1cnc(NC2CC2)nc1-n1cc(NC(=O)N[C@H](CO)c2cccc(Cl)c2)cn1 [Compound 3, (S)-1-(1-(3-chlorophenyl)-2-hydroxyethyl)-3-(1-(2-(cyclopropyl-amino)-5-methyl-pyrimidin-4-yl)-1H-pyrazol-4-yl)urea]"
< 50,≤ 50,,,"Cc1cnc(NC2CCN(C)C2)nc1-n1ccc(C(=O)N[C@H](CO)c2cccc(Cl)c2)c1 (stereo partly drawn) [Compound 208, N-((S)-1-(3-chlorophenyl)-2-hydroxyethyl)-1-(5-methyl-2-((1-methylpyrrolidin-3-yl)amino)pyrimidin-4-yl)-1H-pyrrole-3-carboxamide]"
< 50,≤ 50,,,"Cc1cccc(C(CO)NC(=O)c2ccn(-c3nc(N[C@H]4CCOC4)ncc3C)c2)c1 (stereo partly drawn) [Compound 187, N-(2-hydroxy-1-(m-tolyl)ethyl)-1-(5-methyl-2-(((S)-tetrahydrofuran-3-yl)amino)pyrimidin-4-yl)-1H-pyrrole-3-carboxamide]"
< 50,≤ 50,,,"Cc1cnc(Nc2ccc(C3CCNCC3)c(F)c2)nc1-n1ccc(C(=O)NC(CO)c2cccc(Cl)c2)c1 (centres unmarked) [Compound 216, N-(1-(3-chlorophenyl)-2-hydroxyethyl)-1-(2-((3-fluoro-4-(piperidin-4-yl)phenyl)amino)-5-methylpyrimidin-4-yl)-1H-pyrrole-3-carboxamide]"
,,< 50,≤ 50,"Cc1cnc(NC2CCOCC2)nc1-n1cnc(C(=O)N[C@H](CN(C)C)c2cccc(Cl)c2)c1 [Example 320, (S)-N-(1-(3-chlorophenyl)-2-(dimethylamino)-ethyl)-1-(5-methyl-2-((tetrahydro-2H-pyran-4-yl)amino)-pyrimidin-4-yl)-1H-imidazole-4-carboxamide]"
< 50,≤ 50,,,"Cc1cnc(Nc2ccc3c(c2)OCO3)nc1-n1ccc(C(=O)NC(CO)c2cccc(Cl)c2F)c1 (centres unmarked) [Compound 70, 1-(2-(benzo[d][1,3]dioxol-5-ylamino)-5-methylpyrimidin-4-yl)-N-(1-(3-chloro-2-fluorophenyl)-2-hydroxyethyl)-1H-pyrrole-3-carboxamide]"
< 50,≤ 50,,,"Cc1cnc(Nc2ccc(N3CCOCC3)cc2)nc1-n1ccc(C(=O)NC(CO)c2cccc(Cl)c2)c1 (centres unmarked) [Compound 205, N-(1-(3-chlorophenyl)-2-hydroxyethyl)-1-(5-methyl-2-((4-morpholinophenyl)amino)pyrimidin-4-yl)-1H-pyrrole-3-carboxamide]"
< 50,≤ 50,,,"Cc1cnc(NC2CCNC2)nc1-n1ccc(C(=O)N[C@H](CO)c2cccc(Cl)c2)c1 (stereo partly drawn) [Compound 174, N-((S)-1-(3-chlorophenyl)-2-hydroxyethyl)-1-(5-methyl-2-(pyrrolidin-3-ylamino)pyrimidin-4-yl)-1H-pyrrole-3-carboxamide]"

# Reference: patent publication US9896445B2, “Heterocyclic inhibitors of ERK1 and ERK2 and their use in the treatment of cancer” (Asana Biosciences, LLC, priority 2015, dated 2018)
